# In article PMC12263630 (Frontiers in Pharmacology, 2025):
# Read-outs that look alike come from different tables or passages of the source.
# Experiments:
# [1] = target: T1, human α2C adrenergic receptor (Homo sapiens, UniProt P18825); assay: [35S]GTPγS binding assay, α2C; assay type: biochemical; conditions: for Max activity / EC50: α2CR; for Max activity: relative to maximal response of UK-14304; for EC50: [35S]GTPγS binding
# T1 sequence (P18825 1-462): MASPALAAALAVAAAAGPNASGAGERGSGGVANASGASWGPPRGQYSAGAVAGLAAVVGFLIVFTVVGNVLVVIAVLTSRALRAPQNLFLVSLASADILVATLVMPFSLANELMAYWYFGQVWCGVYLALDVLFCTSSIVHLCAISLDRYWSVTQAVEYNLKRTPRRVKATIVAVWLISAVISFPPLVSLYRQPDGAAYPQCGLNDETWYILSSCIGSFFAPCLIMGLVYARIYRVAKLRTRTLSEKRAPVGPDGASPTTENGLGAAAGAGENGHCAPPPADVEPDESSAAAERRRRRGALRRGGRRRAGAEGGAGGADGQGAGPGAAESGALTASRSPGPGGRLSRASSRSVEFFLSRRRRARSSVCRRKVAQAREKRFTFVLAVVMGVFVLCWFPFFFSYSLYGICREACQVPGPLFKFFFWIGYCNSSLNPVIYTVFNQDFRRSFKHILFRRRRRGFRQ
# Description: (§1) Cells were transfected with constructs encoding either human α2A (Chem-1, rat hematopoietic cell line), or α2B or α2C (Cho-K1, Chinese hamster ovary cell line) adrenergic receptors. Each test compound was prepared in DMSO at 10 mM and diluted to indicated concentrations in the incubation buffer (20 mM HEPES, 100 mM NaCl, 10 mM MgCl2, 1 mM DTT, 1 mM EDTA, pH 7.4.
# (§2) Binding data were generated as duplicates. […] Three parameter logistic equations were fitted to the data to obtain EC50 and Emax values.
# human α2A adrenoceptor = target: T2, human α2A adrenoceptor (Homo sapiens, UniProt P08913); assay: β-arrestin recruitment chemiluminescent assay (PathHunter), α2A; assay type: cell-based; conditions: α2AR, relative to UK-14304
# T2 construct: expressed in transfected cells
# T2 sequence (P08913 1-465): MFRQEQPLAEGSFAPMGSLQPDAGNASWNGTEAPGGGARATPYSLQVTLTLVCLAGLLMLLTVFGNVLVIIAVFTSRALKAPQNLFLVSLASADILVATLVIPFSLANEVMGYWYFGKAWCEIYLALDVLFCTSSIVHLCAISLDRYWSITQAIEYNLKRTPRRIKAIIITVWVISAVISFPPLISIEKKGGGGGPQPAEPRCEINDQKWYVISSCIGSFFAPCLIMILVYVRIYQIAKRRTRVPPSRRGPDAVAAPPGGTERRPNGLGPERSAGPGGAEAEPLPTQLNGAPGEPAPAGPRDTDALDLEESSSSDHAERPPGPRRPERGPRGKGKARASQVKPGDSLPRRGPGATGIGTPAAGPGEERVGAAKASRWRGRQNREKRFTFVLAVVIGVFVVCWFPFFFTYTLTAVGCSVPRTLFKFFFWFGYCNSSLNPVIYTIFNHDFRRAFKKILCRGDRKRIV
# Description: (§3) PathHunter cell lines were expanded from freezer stocks according to standard procedures. Cells were seeded in a total volume of 20 μL into white walled, 384-well microplates and incubated at 37°C for the appropriate time prior to testing. Intermediate dilution of sample stocks was performed to generate 5X sample in assay buffer. […] Vehicle concentration was 1%. […] Microplates were read following signal generation with a PerkinElmer Envision™ instrument for chemiluminescent signal detection.
# [2] = target: T3, human α2A adrenergic receptor (Homo sapiens, UniProt P08913); assay: [35S]GTPγS binding assay, α2A; assay type: biochemical; conditions: α2AR; relative to maximal response of UK-14304
# T3 construct: expressed in transfected cells; host or cells: Chem-1 (rat hematopoietic cell line), membranes
# T3 sequence (P08913 1-465): T2 sequence (P08913 1-465)
# Description: as §1, §2
# human α2C adrenoceptor = target: T4, human α2C adrenoceptor (Homo sapiens, UniProt P18825); assay: β-arrestin recruitment chemiluminescent assay (PathHunter), α2C; assay type: cell-based; conditions: α2CR; for Max activity: relative to UK-14304
# T4 construct: expressed in transfected cells
# T4 sequence (P18825 1-462): T1 sequence (P18825 1-462)
# Description: as §3
# memory consolidation = assay: Cued fear conditioning test; conditions: 10 and 20 μg/kg, 30 min before conditioning
# Description: Rats were housed 1 animal per cage in sterilized solid bottom polycarbonate cages (Dimensions 42.5 cm [L] X 26.5 cm [W] X 18.5 cm [H]) with stainless steel grill tops, facilitate for food and water bottle, and bedding of corncob husk.
# Rodent fear conditioning chambers (L x W x H, rat: 26 × 30 × 33 cm, Coulbourn instruments. United States) placed in sound attenuating cabinets were used. Stainless steel grid floors (L x W, rat: 26 × 30 cm), connected to shock scramblers were used to deliver the shock. A ventilation fan provided a background noise of 60 dB. A light bulb (centered on the right wall, and 27 cm above the floor of the chamber) provided ambient illumination. Experiments were recorded using video camera, mounted on the cabinet ceiling and images were analyzed with freeze frame 3 software (V3.2.1). The fear conditioning chambers have transparent acrylic panels. All experimentations were carried out in a single fear conditioning chamber.
# On day 0, animals were randomized into eight groups based on their body weight.
# Session-I: On day 1 (N = 5), rats were brought to the laboratory at least 1 h prior to experimentation. […]
# On day 2, rats were brought to the laboratory at least 1 h prior to experimentation. […] The freezing behavior of the animals was recorded for 6 min (starting from the time the animal placed in the fear conditioning chamber). […]
# sleep onset latency = test system: sleep onset latency
# Description: Chow and water were provided ad libitum for the duration of the study.
# in vivo = conditions: male, Sprague Dawley, rat
# Description: Male Sprague Dawley (SD) rats, 200–250 g, purchased from Charles River Laboratories (South San Francisco, CA) were used for microdialyses studies. Upon arrival, rats were group-housed in polycarbonate cages (2-3 rats per cage) and acclimated for at least 7 days prior to commencing the studies. […] Rats were tracked via unique identifying numbers.
# Ten male SD rats with a jugular vein (JV) cannula were used in this study. Rats were anesthetized using isoflurane (2%, 800 mL/min O2). Bupivacaine was used for local anesthesia and carprofen for peri-/post-operative analgesia. Animals were placed in a stereotaxic frame (Kopf instruments, United States) and MetaQuant microdialysis probes (PAN membrane, BrainLink, Netherlands) were implanted into the prefrontal cortex (PFC), 4 mm exposed surface. Coordinates for the tips of the probes for the PFC are: antero-posterior (AP) = +3.4 mm from bregma, lateral (L) = −0.8 mm from midline and ventral (V) = −5.0 mm from dura, the toothbar set at −3.3 mm. […] The microdialysis probes were connected with flexible PEEK tubing to a microperfusion pump (Harvard PHD 2000 Syringe pump, Holliston, MA). […] Microdialysis samples were collected for 30 min periods by an automated fraction collector (820 Microsampler, Univentor, Malta) into 300 µL polypropylene mini-vials. […]
# [3] = test system: stress-induced immobility; assay: Forced swim test; assay type: in vivo, SD rats; conditions: versus vehicle; for immobility time: 60 min prior
# Description: A total of 78 male SD rats (9–10 weeks old) were procured from Hylasco Biotechnology Pvt. Ltd., Hyderabad, India and were divided into seven groups (9–12 animals per group). Animals were housed in an environmentally controlled room at 22°C ± 3°C and relative humidity of 30–70 percent. Adequate fresh air supply of 12–15 air changes/hour was maintained. The temperature was maintained at 20°C–23°C. […] The lights of the acclimatization area were switched off at 06:00 p.m. Two rats per cage were housed in sterilized suspended standard, polysulfone cages, (Size: approximately L425 x B266 x H185 mm), with stainless steel top grills having facilities for holding pelleted food and drinking water in polycarbonate bottles with stainless steel sipper tubes. During the study period animals were housed in a single room. Animals received food and water ad libitum.
# The test was carried out in transparent cylindrical glass containers measuring 46 cm in height and 20 cm in diameter. The containers were filled with water (23°C–25 °C) to a depth of 30 cm. Clean drying cages, heat lamps and heat pads were used for the animals that have finished the procedure to avoid hypothermia. The test was carried out in Dark Phase. […] A red bulb of 50 W was used for observation during Swim 1 and Swim 2 procedure. Swim 1 was carried out between 18:30 to 21:30 and Swim 2 was carried out between 19:30 to 21:30.
# On test day, animals were dosed intramuscularly with respective treatment 60 min prior to performing FST. […] In swim 2, the first 1-min data was excluded from analysis and the remaining 5 min data was considered.
# Rats were placed in the water-filled cylinder for 6 min during Swim 2. […] A rat was judged to be immobile when it remained floating in the water without struggling and was making only those movements necessary to keep its head above water. […] Water was changed after every session to avoid any influence on the next rat. […] The rats were placed in a swim chamber and behaviors were measured for 5 min on test day. Data was presented as total immobility time (in seconds) over the 5-min trial.
# [4] = assumed for free plasma calculation; ref Bol et al., 1997; cited from earlier work
# [5] = test system: stress-induced immobility after repeated stress; assay: Open space swim test; conditions: for time spent in the periphery, change vs vehicle controls / mean duration of immobility, change vs vehicle controls / mean distance travelled, change vs vehicle controls: Day 8, 40 μg/kg i.p. acute; for time spent in the periphery, change vs vehicle controls: p < 0.001
# human α2B adrenoceptor = human α2B adrenoceptor (Homo sapiens, UniProt P18089); assay: cell-based
# Description: as §3
# [6] = target: T5, human α2B adrenergic receptor (Homo sapiens, UniProt P18089); assay: biochemical
# T5 sequence (P18089 1-450): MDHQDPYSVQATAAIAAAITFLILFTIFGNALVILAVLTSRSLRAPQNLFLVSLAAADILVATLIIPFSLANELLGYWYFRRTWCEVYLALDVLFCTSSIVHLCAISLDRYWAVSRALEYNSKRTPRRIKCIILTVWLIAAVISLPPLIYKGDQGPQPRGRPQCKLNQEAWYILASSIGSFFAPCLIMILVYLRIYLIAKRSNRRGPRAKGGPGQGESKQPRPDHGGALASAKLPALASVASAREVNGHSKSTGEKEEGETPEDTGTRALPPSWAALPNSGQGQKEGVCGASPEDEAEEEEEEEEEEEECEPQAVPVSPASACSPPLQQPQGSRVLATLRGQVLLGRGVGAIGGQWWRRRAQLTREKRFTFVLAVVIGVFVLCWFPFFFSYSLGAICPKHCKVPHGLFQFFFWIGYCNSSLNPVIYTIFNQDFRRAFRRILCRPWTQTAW
# Description: as §1, §2
# motor coordination = assay: Rotarod test; conditions: 4 mg/kg i.p., 30 min before test; p < 0.01
# Description: 75 male Swiss mice (6 weeks old, 29–41 g body weight range at the beginning of the experiment) were supplied by Janvier Labs (Le Genest St Isle, France). […] Environmental enrichment such as gnawing and nesting material was provided.
# On Day 0, mice were submitted to two training trials separated by a 5-min interval. For each trial, mice were placed on a rod (diameter: 7 cm) rotating at a speed of 18 revolutions per minute for a 3-min period. On Day 1, a final training was performed in the morning (at least 2 h before the drug testing). On Day 1, the test session was performed at least 2 h after the habituation period (in the afternoon) and mice were placed on the rod for a maximum period of 3 min. The latency to fall off the rod was recorded. Data was analyzed by using one-way ANOVA followed by Dunnett’s comparisons test.75 male Swiss mice (6 weeks old, 29–41 g) were allocated into five groups (10–15 animals per group).
# CCK-4 induced anxiety = assay: CCK-4 elevated plus maze test
# Description: 48 male Wistar rats were supplied by Janvier (Le Genest St Isle, France) for this study. They were purchased at a body weight of 150 g and reached a body weight of about 270 g at the time of use.
# In the present study, 12 animals per group were used. The apparatus is a PVC maze covered with Plexiglas and subdivided into four equal exploratory arms (40 × 10 cm), which are all interconnected by a small platform (10 × 10 cm). The apparatus is placed 65 cm above the floor. Two arms are open, and two others are closed with transparent wall (high: 10 cm).
# After compound administration, a rat is placed on the platform opposite a closed arm. The number of entries and the time spent on each arm are recorded during a 5 min period. The animal is considered as entered in an arm when it places its four paws in the arm. The apparatus was cleaned between each animal using alcohol (70%). Urine and feces were removed from the maze. Data were analyzed by One way ANOVA followed by Dunnett’s comparisons test. CCK-4 (0.2 mg/kg) was administered intraperitoneally in the Wistar rats 30 min prior to the test. […] 60 min prior to the study (30 min prior to CCK-4 administration). Diazepam (1 mg/kg) was administered 30 min prior to study (at the time of CCK-4 administration). After the administration of compounds, rats were placed on the platform opposite a closed arm in the elevated plus maze. The number of entries and the time spent in each arm were recorded during a 5 min period. The animal was considered as entered in an arm when it placed its four paws in the arm.
# [7] = daily i.p. Day 8 to Day 32, 40 μg/kg, p < 0.0001
compound,measurement,setting,value
N=C(N)NC(=O)Cc1c(Cl)cccc1Cl [Guanfacine],Max activity,[1],72%
same,Max activity,human α2A adrenoceptor,100%
same,Max activity,[2],78%
same,Max activity,human α2C adrenoceptor,68%
Cc1cccc([C@H](C)c2cnc[nH]2)c1C [Dexmedetomidine],memory formation (duration of freezing),memory consolidation,did not impair memory formation
same,onset of SWS,sleep onset latency; 5 μg/kg intramuscular,significantly reduced
same,onset of SWS,sleep onset latency; 20 μg/kg intramuscular,significantly reduced
same,Tmax,in vivo,30 to 60 min
same,EC50,[1],14 nM
same,Max activity,[1],110%
same,immobility time,"[3]; 1 μg/kg intramuscular, p = 0.0238",significantly decreased
same,immobility time,"[3]; 5 μg/kg intramuscular, p < 0.0001",significantly decreased
same,Max activity,human α2A adrenoceptor,101%
same,bound to plasma proteins,[4],84%
same,"time spent in the periphery, change vs vehicle controls",[5]; first treated group,+159%
same,"mean duration of immobility, change vs vehicle controls","[5]; first treated group, p < 0.01",−43%
same,"mean distance travelled, change vs vehicle controls","[5]; first treated group, p < 0.05",+31%
same,"time spent in the periphery, change vs vehicle controls",[5]; second treated group,+138%
same,"mean distance travelled, change vs vehicle controls","[5]; second treated group, p < 0.01",+36%
same,"mean duration of immobility, change vs vehicle controls","[5]; second treated group, p < 0.01",−36%
same,mean distance travelled over the testing period,[5]; [7],increased
same,mean duration of immobility over the testing period,[5]; [7],decreased
same,time spent in the periphery over the testing period,[5]; [7],increased
same,EC50,human α2B adrenoceptor,0.6 nM
same,Max activity,human α2B adrenoceptor,106%
same,Max activity,[2],89%
same,EC50,human α2C adrenoceptor,24 nM
same,Max activity,human α2C adrenoceptor,95%
same,EC50,[6],2.8 nM
same,Max activity,[6],147%
CC(Oc1c(Cl)cccc1Cl)C1=NCCN1 (centres unmarked) [Lofexidine],EC50,[1],23 nM
same,Max activity,[1],50%
same,EC50,[6],43 nM
same,Max activity,"[6]; α2BR, relative to maximal response of UK-14304",97%
Clc1cccc(Cl)c1N=C1NCCN1 [Clonidine],intrinsic activity at the α2C-AR,"[1]; in words, repeated in two assay systems",very low intrinsic activity
same,Max activity,[1],32%
same,Max activity,human α2A adrenoceptor,93%
same,Max activity,[2],76%
same,Max activity,human α2C adrenoceptor,8%
CN(C)CCCN1c2ccccc2CCc2ccccc21 [imipramine],"immobility time, positive control",[3]; 30 mg/kg,p = 0.0002 versus vehicle
CN1C(=O)CN=C(c2ccccc2)c2cc(Cl)ccc21 [Diazepam],"latency to fall-off, change vs vehicle controls",motor coordination,−60%
same,"effects in elevated plus maze, positive control","CCK-4 induced anxiety; 1 mg/kg, 30 min prior, with CCK-4",exceeded those measured in vehicle animals
Cholecystokinin tetrapeptide [CCK-4],number of entries in the open arms,"CCK-4 induced anxiety; CCK-4 0.2 mg/kg i.p. alone, vehicle 4.3",1.3
same,time spent in the open arms,"CCK-4 induced anxiety; CCK-4 0.2 mg/kg i.p. alone, vehicle 45 s",6 s
